Test systems include SK-OV-3; HCT-15; UACC-62; Hs-578T; T47D; SNB-19; COLO 205; OVCAR-8; NCI-H226; A549; HCC 2998; BT-549; CAKI-1; MDA-N; NCI/ADR-RES; U-251; A498; NCI-H522; NCI-H460; DU-145.
What all share (assay): NCI tumour cell line growth inhibition, 48 h

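In this assay, cells in 96-well plates receive the compound at five concentrations for 48 hours. Endpoints are linearly interpolated between the surrounding concentrations. Abbreviation: GI50, concentration required for 50% inhibition of growth.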 Active and inactive are the calls of the source. Rule as the data show it: active = GI50 up to about 1.1 µM and inactive = higher.

Regarding `CCOC(=O)c1ccc(C(=O)/C(C#N)=C2\CCCN2)n1C`, the GI50 with SK-OV-3 was > 100 µM (inactive); in the test on HCT-15, 76.4 µM; in the test with UACC-62 it was > 100 µM (inactive); with Hs-578T, > 100 µM (inactive); in the test on T47D, 28.2 µM (inactive); in the test with SNB-19, > 100 µM (inactive). For the same compound, the GI50 was > 100 µM (inactive) in the test with COLO 205; > 100 µM (inactive) with OVCAR-8; 79.1 µM (inactive) in the test with NCI-H226; > 100 µM (inactive) with A549; > 100 µM (inactive) with HCC 2998; 78.9 µM (inactive) with BT-549. In addition, the GI50 is > 100 µM (inactive) with CAKI-1; 34 µM (inactive) in the test on MDA-N; 34.2 µM (inactive) with NCI/ADR-RES; > 100 µM (inactive) in the test on U-251; > 100 µM (inactive) in the test on A498; 95.7 µM (inactive) in the test with NCI-H522. In addition, the GI50 was > 100 µM (inactive) with NCI-H460 and 95.1 µM (inactive) in the test with DU-145.
Turning to `CNC(=O)N(C)C(=O)c1ccccc1C(=O)N(C)C(=O)NC`, the GI50 with SK-OV-3 was > 10 µM (inactive); with HCT-15, above 10 µM; with UACC-62 it was > 10 µM (inactive); with Hs-578T, > 10 µM (inactive); with T47D it was > 10 µM (inactive); in the test on SNB-19, > 10 µM (inactive). In addition, the GI50 in the test on COLO 205, with OVCAR-8, in the test with NCI-H226, with A549, in the test on HCC 2998 and with BT-549 was > 10 µM (inactive) throughout. The GI50 in the test on CAKI-1, in the test with MDA-N, in the test with NCI/ADR-RES, in the test with U-251, in the test with A498 and in the test with NCI-H522 was > 10 µM (inactive) in each case. Moreover, the GI50 with NCI-H460 and in the test with DU-145 was > 10 µM (inactive) throughout.
Turning to `Clc1ccc2c(NCCCCCCNc3ccnc4cc(Cl)ccc34)ccnc2c1`, the GI50 with SK-OV-3 was 5.22 µM (inactive); in the test on HCT-15 it was 2.88 µM; in the test with UACC-62, 3.86 µM (inactive); in the test on Hs-578T it was 3.27 µM (inactive); with T47D it was 2.08 µM (inactive); with SNB-19, 3.8 µM (inactive). Moreover, the GI50 in the test with COLO 205 was 1.82 µM (inactive); in the test with OVCAR-8 it was 2.05 µM (inactive); with NCI-H226 it was 10.4 µM (inactive); in the test with A549, 4.69 µM (inactive); with HCC 2998 it was 1.67 µM (inactive); in the test with BT-549 it was 11.6 µM (inactive). Further, the GI50 with CAKI-1 was 9.04 µM (inactive); with MDA-N it was 2.46 µM (inactive); in the test on NCI/ADR-RES it was 4.56 µM (inactive); in the test with U-251, 2.45 µM (inactive); in the test on A498, 11.2 µM (inactive); in the test with NCI-H522, 1.69 µM (inactive). In addition, the GI50 in the test with NCI-H460 is 2.25 µM (inactive); in the test on DU-145, 6.19 µM (inactive).
As to `Cc1cc(O)c(C(C)C)cc1C1(c2cc(C(C)C)c(O)cc2C)OC(=O)c2ccccc21`, the GI50 in the test on SK-OV-3 was 4.47 µM (inactive); in the test with HCT-15, 2 µM; in the test on UACC-62, 1.46 µM (inactive); in the test with Hs-578T it was 2.14 µM (inactive); with T47D, 1.85 µM (inactive); in the test on SNB-19 it was 3.15 µM (inactive). Moreover, the GI50 in the test on COLO 205 was 1.93 µM (inactive); in the test on OVCAR-8, 2.7 µM (inactive); in the test on NCI-H226 it was 2.48 µM (inactive); with A549, 3.05 µM (inactive); in the test on HCC 2998 it was 1.73 µM (inactive); with BT-549 it was 2.24 µM (inactive). Moreover, the GI50 in the test with CAKI-1 was 3.37 µM (inactive); with MDA-N, 1.67 µM (inactive); with NCI/ADR-RES, 2.9 µM (inactive); in the test with U-251, 1.97 µM (inactive); in the test on A498, 2.43 µM (inactive); in the test on NCI-H522 it was 1.84 µM (inactive). For the same compound, the GI50 in the test on NCI-H460 was 1.92 µM (inactive); in the test on DU-145, 2.07 µM (inactive).
With `CC(=O)OCC1OC(OCCCOP(=S)(OCCC#N)OCC2OC(n3ccc(N)nc3=O)C(OC(=O)c3ccccc3)C2OC(=O)c2ccccc2)C(OC(C)=O)C(OC(C)=O)C1OC(C)=O` (stereo not given), the GI50 is > 100 µM (inactive) with SK-OV-3; above 100 µM with HCT-15; > 100 µM (inactive) in the test on UACC-62; > 100 µM (inactive) with Hs-578T; > 100 µM (inactive) in the test on T47D; > 100 µM (inactive) in the test on SNB-19. For the same compound, the GI50 in the test with COLO 205, in the test on OVCAR-8, in the test on NCI-H226, with A549, in the test on HCC 2998 and in the test on BT-549 was > 100 µM (inactive) throughout. Also, the GI50 in the test on CAKI-1, with MDA-N, in the test with NCI/ADR-RES, in the test on U-251, in the test on A498 and in the test on NCI-H522 was > 100 µM (inactive) in each case. Moreover, the GI50 with NCI-H460 and with DU-145 was > 100 µM (inactive) each time.
With `Cc1ccc(/N=C2\C(=O)C3=C(OC(C)(C)CC3)c3ccccc32)cc1`, the GI50 in the test with SK-OV-3 was 1.57 µM (inactive); with HCT-15, 0.415 µM; in the test on UACC-62 it was 1.49 µM (inactive); in the test with Hs-578T, 2.82 µM (inactive); with T47D, 0.366 µM (active); in the test with SNB-19, 0.851 µM (active). The GI50 in the test on COLO 205 was 1.69 µM (inactive); with OVCAR-8, 0.357 µM (active); in the test with NCI-H226, 2.86 µM (inactive); in the test on A549, 1.83 µM (inactive); with HCC 2998, 1.77 µM (inactive); in the test on BT-549, 1.33 µM (inactive). Also, the GI50 in the test with CAKI-1 is 1.71 µM (inactive); in the test with MDA-N it was 0.183 µM (active); in the test on NCI/ADR-RES, 0.318 µM (active); with U-251, 0.577 µM (active); in the test on A498, 2.06 µM (inactive); with NCI-H522 it was 1.25 µM (inactive). Moreover, the GI50 in the test on NCI-H460 is 1.58 µM (inactive); in the test with DU-145, 1.31 µM (inactive).
Turning to `Nc1ccc2c(c1)NC(=O)[C@@H]1CCCN1C2=O`, the GI50 was > 100 µM (inactive) with SK-OV-3; above 100 µM in the test with HCT-15; > 100 µM (inactive) in the test with UACC-62; > 100 µM (inactive) with Hs-578T; 96.6 µM (inactive) with T47D; > 100 µM (inactive) in the test with SNB-19. In addition, the GI50 in the test with COLO 205, in the test on OVCAR-8, with NCI-H226, in the test on A549, with HCC 2998 and with BT-549 was > 100 µM (inactive) throughout. For the same compound, the GI50 with CAKI-1, with MDA-N, with NCI/ADR-RES, in the test on U-251, in the test on A498 and in the test with NCI-H522 was > 100 µM (inactive) throughout. The GI50 in the test on NCI-H460 and with DU-145 was > 100 µM (inactive) each time.
For `CCCCCCCCC(=O)NCCN(CCN)C(=O)CCCCCCCC`, the GI50 is 15.5 µM (inactive) with SK-OV-3; 5.19 µM with HCT-15; 10.7 µM (inactive) in the test on UACC-62; 8.38 µM (inactive) in the test on Hs-578T; 14.9 µM (inactive) with T47D; 8.55 µM (inactive) in the test on SNB-19. In addition, the GI50 in the test with COLO 205 is 3.29 µM (inactive); in the test with OVCAR-8, 10.7 µM (inactive); in the test with NCI-H226 it was 18.5 µM (inactive); in the test with A549, 13.1 µM (inactive); in the test with HCC 2998, 6.14 µM (inactive); in the test with BT-549 it was 3.44 µM (inactive). Also, the GI50 in the test on CAKI-1 was 17.5 µM (inactive); in the test with MDA-N it was 5.6 µM (inactive); with NCI/ADR-RES it was 13.1 µM (inactive); in the test with U-251 it was 3.37 µM (inactive); with A498, 21.9 µM (inactive); with NCI-H522 it was 2.65 µM (inactive). In addition, the GI50 is 5.86 µM (inactive) in the test on NCI-H460 and 13.6 µM (inactive) with DU-145.
Consider `COc1cc(/C=C2\CCC/C(=C\c3ccc(O)c(OC)c3)C2=O)ccc1O` [CYCLOVALONE], for which the GI50 was 3.73 µM (inactive) in the test on SK-OV-3; 2.34 µM with HCT-15; 1.96 µM (inactive) with UACC-62; 4.16 µM (inactive) in the test with Hs-578T; 3.29 µM (inactive) in the test with T47D; 6.15 µM (inactive) in the test on SNB-19. The GI50 with COLO 205 is 14.2 µM (inactive); with OVCAR-8 it was 1.72 µM (inactive); with NCI-H226, 6.17 µM (inactive); in the test with A549, 2.73 µM (inactive); in the test on HCC 2998, 2.77 µM (inactive); in the test on BT-549 it was 3.59 µM (inactive). The GI50 in the test on CAKI-1 was 2.81 µM (inactive); in the test on MDA-N, 2.42 µM (inactive); in the test on NCI/ADR-RES it was 2.91 µM (inactive); with U-251, 2.08 µM (inactive); in the test on A498 it was 3.99 µM (inactive); in the test with NCI-H522, 1.57 µM (inactive). Moreover, the figures for the GI50 with NCI-H460 and in the test on DU-145 were 2.59 µM (inactive) and 3.47 µM (inactive), respectively.
As for `O=[N+]([O-])/C=C/c1cc(Cl)c(/C=C/[N+](=O)[O-])cc1Cl`, the GI50 was 35.6 µM (inactive) in the test with SK-OV-3; 1.01 µM in the test on HCT-15; 1.91 µM (inactive) in the test with UACC-62; 2.91 µM (inactive) in the test on Hs-578T; 2.03 µM (inactive) with T47D; 2.37 µM (inactive) in the test with SNB-19. Also, the GI50 with COLO 205 is 1.95 µM (inactive); in the test with OVCAR-8, 1.61 µM (inactive); in the test on NCI-H226 it was 2.06 µM (inactive); with A549, 4.63 µM (inactive); with HCC 2998, 1.53 µM (inactive); with BT-549, 1.57 µM (inactive). Also, the GI50 in the test with CAKI-1 is 1.89 µM (inactive); in the test with MDA-N, 2.27 µM (inactive); with NCI/ADR-RES it was 2.79 µM (inactive); in the test with U-251 it was 1.63 µM (inactive); with A498, 5.89 µM (inactive); in the test with NCI-H522, 0.975 µM (active). Further, the GI50 with NCI-H460 was 19.4 µM (inactive); with DU-145, 2.51 µM (inactive).
